Laboratory results from patent publication US20200249573A1, “COMPOSITION FOR RESIST UNDERLAYER FILM FORMATION, UNDERLAYER FILM FOR LITHOGRAPHY, AND PATTERN FORMATION METHOD” (MITSUBISHI GAS CHEMICAL COMPANY, INC., priority 2016, published 2020).

Experiment: Solubility of the compound in PGMEA (safe solvent)
Conditions: 23° C.; for solubility in PGMEA (amount of dissolution): ultrasonic waves 30 minutes, visual observation
Method: The solubility of the obtained compound in propylene glycol monomethyl ether acetate (PGMEA) was measured as the solubility of the compound in a safe solvent. The solubility was evaluated according to the following criteria utilizing the amount of dissolution in PGMEA. The amount of dissolution in PGMEA was measured at 23° C. by precisely weighing the compound into a test tube, adding PGMEA so as to attain a predetermined concentration, applying ultrasonic waves for 30 minutes in an ultrasonic cleaner, then visually observing the subsequent state of the fluid, and conducting evaluation on the basis of the concentration of the amount of complete dissolution.
A: 5.0% by mass<Amount of dissolution
B: 3.0% by mass<Amount of dissolution<5.0% by mass
C: Amount of dissolution<3.0% by mass

| SMILES | solubility in PGMEA, evaluation | solubility in PGMEA (amount of dissolution) |
| --- | --- | --- |
| Oc1ccc([Te](Cl)(Cl)c2ccc(O)cc2)cc1 [BHPT, bis(4-hydroxyphenyl)tellurium dichloride] | A (5.0% by mass<Amount of dissolution) | ≥ 5 % by mass |
| CC1(OC(=O)COc2ccc([Te](Cl)(Cl)c3ccc(OCC(=O)OC4(C)C5CC6CC(C5)CC4C6)cc3)cc2)C2CC3CC(C2)CC1C3 (stereo not shown) [BHPT-ADBAC, bis(4-(2-methyl-2-adamantyloxycarbonylmethoxy)phenyl)tellurium dichloride] | A (5.0% by mass<Amount of dissolution) | ≥ 5 % by mass |
| CC(C)(C)OC(=O)Oc1ccc([Te](Cl)(Cl)c2ccc(OC(=O)OC(C)(C)C)cc2)cc1 [BHPT-BOC, bis(tert-butoxycarboxyphenyl)tellurium dichloride] | A (5.0% by mass<Amount of dissolution) | ≥ 5 % by mass |
| CCOC(C)Oc1ccc([Te](Cl)(Cl)c2ccc(OC(C)OCC)cc2)cc1 (stereo not shown) [BHPT-EE, bis(ethoxyethylphenyl)tellurium dichloride] | A (5.0% by mass<Amount of dissolution) | ≥ 5 % by mass |
| Oc1ccc([Te](Cl)(Cl)c2ccc(O)cc2O)cc1 [CCHT, (2,4-dihydroxyphenyl) (4-hydroxyphenyl)tellurium dichloride] | A (5.0% by mass<Amount of dissolution) | ≥ 5 % by mass |
| CC1(OC(=O)COc2ccc([Te](Cl)(Cl)c3ccc(OCC(=O)OC4(C)C5CC6CC(C5)CC4C6)cc3OCC(=O)OC3(C)C4CC5CC(C4)CC3C5)cc2)C2CC3CC(C2)CC1C3 (stereo not shown) [CCHT-ADBAC] | A (5.0% by mass<Amount of dissolution) | ≥ 5 % by mass |
| Oc1ccc([Te](Cl)(Cl)c2ccc(O)c(-c3ccccc3)c2)cc1-c1ccccc1 [Ph-BHPT, bis(3-phenyl-4-hydroxyphenyl)tellurium dichloride] | A (5.0% by mass<Amount of dissolution) | ≥ 5 % by mass |
| CC1(OC(=O)COc2ccc([Te](Cl)(Cl)c3ccc(OCC(=O)OC4(C)C5CC6CC(C5)CC4C6)c(-c4ccccc4)c3)cc2-c2ccccc2)C2CC3CC(C2)CC1C3 (stereo not shown) [Ph-BHPT-ADBAC] | A (5.0% by mass<Amount of dissolution) | ≥ 5 % by mass |
| Oc1ccc([Te]c2ccc(O)c(-c3ccccc3)c2)cc1-c1ccccc1 [Ph-TDP, bis(3-phenyl-4-hydroxyphenyl)tellurium] | A (5.0% by mass<Amount of dissolution) | ≥ 5 % by mass |
| CC1(OC(=O)COc2ccc([Te]c3ccc(OCC(=O)OC4(C)C5CC6CC(C5)CC4C6)c(-c4ccccc4)c3)cc2-c2ccccc2)C2CC3CC(C2)CC1C3 (stereo not shown) [Ph-TDP-ADBAC] | A (5.0% by mass<Amount of dissolution) | ≥ 5 % by mass |
| CC(C)(C)OC(=O)COc1ccc([Te]c2ccc(OCC(=O)OC(C)(C)C)c(-c3ccccc3)c2)cc1-c1ccccc1 [Ph-TDP-BOC] | A (5.0% by mass<Amount of dissolution) | ≥ 5 % by mass |
| CCOC(C)Oc1ccc([Te](Cl)(Cl)c2ccc(OC(C)OCC)c(-c3ccccc3)c2)cc1-c1ccccc1 (stereo not shown) [Ph-TDP-EE] | A (5.0% by mass<Amount of dissolution) | ≥ 5 % by mass |
| Oc1ccc([Te]c2ccc(O)cc2)cc1 [TDP, 4,4′-telluriumdiphenol] | A (5.0% by mass<Amount of dissolution) | ≥ 5 % by mass |
| CC1(OC(=O)COc2ccc([Te]c3ccc(OCC(=O)OC4(C)C5CC6CC(C5)CC4C6)cc3)cc2)C2CC3CC(C2)CC1C3 (stereo not shown) [TDP-ADBAC] | A (5.0% by mass<Amount of dissolution) | ≥ 5 % by mass |
